In patent publication US10238631B2, “Sesquiterpene derivatives and their use in inflammation or cancer treatment” (Academia Sinica, priority 2014, dated 2019):

system: MCF-7 (ER+, Her2−) human breast cancer cells; experiment: MTT cell viability assay, MCF-7 cells; format: cell-based; details: MCF7, 24 h, read-out: IC50 on cell viability, MCF-7 (ER+, Her2−)
Method: (§1) Normal or cancer cells (2×10^3 to 1×10^4 cells/well) were seeded in 96-well plate for overnight and treated with different compounds for 24 h to 72 h. Cells growth were determined by MTT-based colorimetric assays according to. Viability of the test cells treated with vehicle (0.5% DMSO) only was defined as 100% viable. Survival of cells after treatment with DETDs was calculated using the following formula: viable cell number (%)=OD570 (treated cell culture)/OD570 (vehicle control)×100.
(§2) Sixty DETDs were derived from parental compound […] and tested for anti-breast cancer cell activity.

SMILES	IC50 [µM]
C=C1C(=O)OC2CC3=C[C@@H](C/C(C)=C/C(OC(=O)Cc4ccc(OC)cc4)[C@H]12)OC3=O (stereo partly drawn) [DETD-44]	> 7.5
C=C1C(=O)OC2CC3=C[C@@H](C/C(C)=C/C(OC(=O)/C=C/c4cc(OC)c(OC)c(OC)c4)[C@H]12)OC3=O (stereo partly drawn) [DETD-7]	2.3
C=C1C(=O)OC2CC3=C[C@@H](C/C(C)=C/C(OC(C)=O)[C@H]12)OC3=O (stereo partly drawn) [DETD-17]	6.7
C=C1C(=O)OC2CC3=C[C@@H](C/C(C)=C/C(OC(=O)C4CCCC4)[C@H]12)OC3=O (stereo partly drawn) [DETD-37]	6.2

system: A2058 (BRAF mutation); experiment: MTT cell viability assay, A2058 melanoma; format: cell-based, human; details: Homo sapiens, A2058, 24 h
Method: as §1
(§3) Several genes are involved in melanoma development and pathology; specifically, mutation in V-raf murine sarcoma viral oncogene homolog B1 (B-RAF) occurs approximately 50-60% and in neuroblastoma RAS viral oncogene homolog (N-RAS) occurs about 30% of malignant melanomas. A spectrum of wild-type or mutated melanoma cell lines including B16-F10, MeWo, A375, A2058, HTB-68, and melanocyte were used to study anti-melanoma cell proliferation activity of parental phytocompound DET and newly synthesized DETDs.

SMILES	IC50 [µM]
C=C1C(=O)OC2CC3=C[C@@H](C/C(C)=C/C(OC(=O)Cc4ccc(OC)cc4)[C@H]12)OC3=O (stereo partly drawn) [DETD-44]	8.5
C=C1C(=O)OC2CC3=C[C@@H](C/C(C)=C/C(OC(=O)/C=C/c4cc(OC)c(OC)c(OC)c4)[C@H]12)OC3=O (stereo partly drawn) [DETD-7]	5.5
C=C1C(=O)OC2CC3=C[C@@H](C/C(C)=C/C(OC(C)=O)[C@H]12)OC3=O (stereo partly drawn) [DETD-17]	> 10
C=C1C(=O)OC2CC3=C[C@@H](C/C(C)=C/C(OC(=O)C4CCCC4)[C@H]12)OC3=O (stereo partly drawn) [DETD-37]	> 10

system: B16-F10 (NRAS mutation); experiment: MTT cell viability assay, B16-F10 melanoma; format: cell-based; details: Mus musculus, B16-F10, 24 h, 24 h, read-out: IC50 on cell viability, B16-F10 (NRAS mutation)
Method: as §1, §3

SMILES	IC50 [µM]
C=C1C(=O)OC2CC3=C[C@@H](C/C(C)=C/C(OC(=O)Cc4ccc(OC)cc4)[C@H]12)OC3=O (stereo partly drawn) [DETD-44]	7.3
C=C1C(=O)OC2CC3=C[C@@H](C/C(C)=C/C(OC(=O)/C=C/c4cc(OC)c(OC)c(OC)c4)[C@H]12)OC3=O (stereo partly drawn) [DETD-7]	4.8
C=C1C(=O)OC2CC3=C[C@@H](C/C(C)=C/C(OC(=O)C4CCCC4)[C@H]12)OC3=O (stereo partly drawn) [DETD-37]	3.8

same assay, conditions: Mus musculus, B16-F10, 24 h, read-out: IC50 on cell viability, B16-F10 (NRAS mutation)

SMILES	IC50 [µM]
C=C1C(=O)OC2CC3=C[C@@H](C/C(C)=C/C(OC(C)=O)[C@H]12)OC3=O (stereo partly drawn) [DETD-17]	> 10

system: M10 normal mammary epithelial cells; experiment: MTT cell viability assay, M10 normal cells; format: cell-based, human; details: Homo sapiens, Epithelial cell, 24 h
Method: as §1, §2

SMILES	IC50 [µM]
C=C1C(=O)OC2CC3=C[C@@H](C/C(C)=C/C(OC(=O)Cc4ccc(OC)cc4)[C@H]12)OC3=O (stereo partly drawn) [DETD-44]	> 7.5
C=C1C(=O)OC2CC3=C[C@@H](C/C(C)=C/C(OC(=O)/C=C/c4cc(OC)c(OC)c(OC)c4)[C@H]12)OC3=O (stereo partly drawn) [DETD-7]	> 7.5
C=C1C(=O)OC2CC3=C[C@@H](C/C(C)=C/C(OC(C)=O)[C@H]12)OC3=O (stereo partly drawn) [DETD-17]	> 7.5
C=C1C(=O)OC2CC3=C[C@@H](C/C(C)=C/C(OC(=O)C4CCCC4)[C@H]12)OC3=O (stereo partly drawn) [DETD-37]	> 7.5

system: MDA-MB-231 (ER−, PR−, Her2−) human breast cancer cells; experiment: MTT cell viability assay, MDA-MB-231 cells; format: cell-based; details: Homo sapiens, MDA-MB-231, 24 h, read-out: IC50 on cell viability, MDA-MB-231 (ER−, PR−, Her2−)
Method: as §1, §2

SMILES	IC50 [µM]
C=C1C(=O)OC2CC3=C[C@@H](C/C(C)=C/C(OC(=O)Cc4ccc(OC)cc4)[C@H]12)OC3=O (stereo partly drawn) [DETD-44]	7
C=C1C(=O)OC2CC3=C[C@@H](C/C(C)=C/C(OC(=O)/C=C/c4cc(OC)c(OC)c(OC)c4)[C@H]12)OC3=O (stereo partly drawn) [DETD-7]	6.1
C=C1C(=O)OC2CC3=C[C@@H](C/C(C)=C/C(OC(C)=O)[C@H]12)OC3=O (stereo partly drawn) [DETD-17]	> 7.5
C=C1C(=O)OC2CC3=C[C@@H](C/C(C)=C/C(OC(=O)C4CCCC4)[C@H]12)OC3=O (stereo partly drawn) [DETD-37]	6.7

system: A375 (BRAF mutation); experiment: MTT cell viability assay, A375 melanoma; format: cell-based, human; details: Homo sapiens, A-375, 24 h, 24 h, MTT; read-out: IC50 on cell viability, A375 (BRAF mutation)
Method: as §1, §3
To investigate whether or not DETD-35 show synergism with PLX4032 against A375 melanoma cells, we performed anti-proliferation assay using MTT reagent to obtain IC50 of each compound. […] The synergistic effect was quantified by combination index (CI) analysis as stated above.

SMILES	IC50 [µM]
C=C1C(=O)OC2CC3=C[C@@H](C/C(C)=C/C(OC(=O)Cc4ccc(OC)cc4)[C@H]12)OC3=O (stereo partly drawn) [DETD-44]	3.5
C=C1C(=O)OC2CC3=C[C@@H](C/C(C)=C/C(OC(=O)/C=C/c4cc(OC)c(OC)c(OC)c4)[C@H]12)OC3=O (stereo partly drawn) [DETD-7]	4.9
C=C1C(=O)OC2CC3=C[C@@H](C/C(C)=C/C(OC(=O)C4CCCC4)[C@H]12)OC3=O (stereo partly drawn) [DETD-37]	> 10

same assay, conditions: Homo sapiens, A-375, 24 h, read-out: IC50 on cell viability, A375 (BRAF mutation)

SMILES	IC50 [µM]
C=C1C(=O)OC2CC3=C[C@@H](C/C(C)=C/C(OC(C)=O)[C@H]12)OC3=O (stereo partly drawn) [DETD-17]	> 10

system: HTB-68 (NRAS mutation); experiment: MTT cell viability assay, HTB-68 melanoma; format: cell-based, human; details: Homo sapiens, 24 h
Method: as §1, §3

SMILES	IC50 [µM]
C=C1C(=O)OC2CC3=C[C@@H](C/C(C)=C/C(OC(=O)Cc4ccc(OC)cc4)[C@H]12)OC3=O (stereo partly drawn) [DETD-44]	7.6
C=C1C(=O)OC2CC3=C[C@@H](C/C(C)=C/C(OC(=O)/C=C/c4cc(OC)c(OC)c(OC)c4)[C@H]12)OC3=O (stereo partly drawn) [DETD-7]	8.4
C=C1C(=O)OC2CC3=C[C@@H](C/C(C)=C/C(OC(C)=O)[C@H]12)OC3=O (stereo partly drawn) [DETD-17]	> 10
C=C1C(=O)OC2CC3=C[C@@H](C/C(C)=C/C(OC(=O)C4CCCC4)[C@H]12)OC3=O (stereo partly drawn) [DETD-37]	> 10

system: LPS-induced nitric oxide (NO) production in RAW 264.7 cells; experiment: Nitric oxide production in LPS-stimulated macrophages (Griess); format: cell-based, mouse; details: Mus musculus; LPS-stimulated RAW264.7, nitrite 24 h after LPS
Method: (§4) Marcophages (2×10^5 cells/well in 96-well plate) were treated with compounds for 1 h, then incubated further for 24 h with or without the presence of […] LPS in the cultural medium. Nitrite levels in cell culture medium were determined by the Griess reaction method. In parallel to the Griess assays, macrophage cell viabilities were determined using the MTT based colorimetric assay.
LPS from the outer membrane of Gram-negative bacteria can induce mRNA or protein levels of inducible nitric oxide synthase (iNOS), which catalyzes oxidative deamination of L-arginine to produce nitric oxide (NO). Once NO is predominantly produced, it interacts with superoxide anion and generates highly reactive oxidants resulting in cellular inflammation, DNA, protein and tissue damages, carcinogenesis, and antiapoptosis. We used in vitro LPS stimulated inflammation in RAW264.7 cell system to evaluate the effect of DET and its derivatives DETDs on NO production by determination of nitrite level (equivalent to NO level) in culture medium 24 h after LPS treatment.

SMILES	IC50 [µM]
C=C1C(=O)OC2CC3=C[C@@H](C/C(C)=C/C(OC(=O)Cc4ccc(OC)cc4)[C@H]12)OC3=O (stereo partly drawn) [DETD-44]	3.4
C=C1C(=O)OC2CC3=C[C@@H](C/C(C)=C/C(OC(=O)/C=C/c4cc(OC)c(OC)c(OC)c4)[C@H]12)OC3=O (stereo partly drawn) [DETD-7]	2.2
C=C1C(=O)OC2CC3=C[C@@H](C/C(C)=C/C(OC(C)=O)[C@H]12)OC3=O (stereo partly drawn) [DETD-17]	2
C=C1C(=O)OC2CC3=C[C@@H](C/C(C)=C/C(OC(=O)C4CCCC4)[C@H]12)OC3=O (stereo partly drawn) [DETD-37]	2

system: Melanocyte (Normal cells); experiment: MTT cell viability assay, normal melanocytes; format: cell-based, human; details: Homo sapiens, Melanocyte, 24 h
Method: as §1, §3

SMILES	IC50 [µM]
C=C1C(=O)OC2CC3=C[C@@H](C/C(C)=C/C(OC(=O)Cc4ccc(OC)cc4)[C@H]12)OC3=O (stereo partly drawn) [DETD-44]	> 10
C=C1C(=O)OC2CC3=C[C@@H](C/C(C)=C/C(OC(=O)/C=C/c4cc(OC)c(OC)c(OC)c4)[C@H]12)OC3=O (stereo partly drawn) [DETD-7]	> 10
C=C1C(=O)OC2CC3=C[C@@H](C/C(C)=C/C(OC(C)=O)[C@H]12)OC3=O (stereo partly drawn) [DETD-17]	> 10
C=C1C(=O)OC2CC3=C[C@@H](C/C(C)=C/C(OC(=O)C4CCCC4)[C@H]12)OC3=O (stereo partly drawn) [DETD-37]	> 10

system: RAW264.7 (normal macrophage); experiment: MTT cell viability assay, RAW264.7 macrophages; format: cell-based, mouse; details: Mus musculus, RAW264.7, 24 h
Method: as §1, §4

SMILES	IC50 [µM]
C=C1C(=O)OC2CC3=C[C@@H](C/C(C)=C/C(OC(=O)Cc4ccc(OC)cc4)[C@H]12)OC3=O (stereo partly drawn) [DETD-44]	> 10
C=C1C(=O)OC2CC3=C[C@@H](C/C(C)=C/C(OC(=O)/C=C/c4cc(OC)c(OC)c(OC)c4)[C@H]12)OC3=O (stereo partly drawn) [DETD-7]	> 10
C=C1C(=O)OC2CC3=C[C@@H](C/C(C)=C/C(OC(C)=O)[C@H]12)OC3=O (stereo partly drawn) [DETD-17]	> 10
C=C1C(=O)OC2CC3=C[C@@H](C/C(C)=C/C(OC(=O)C4CCCC4)[C@H]12)OC3=O (stereo partly drawn) [DETD-37]	> 10

system: MeWo (No NRAS or BRAF mutation); experiment: MTT cell viability assay, MeWo melanoma; format: cell-based, human; details: Homo sapiens, MeWo, 24 h
Method: as §1, §3

SMILES	IC50 [µM]
C=C1C(=O)OC2CC3=C[C@@H](C/C(C)=C/C(OC(=O)Cc4ccc(OC)cc4)[C@H]12)OC3=O (stereo partly drawn) [DETD-44]	> 10
C=C1C(=O)OC2CC3=C[C@@H](C/C(C)=C/C(OC(=O)/C=C/c4cc(OC)c(OC)c(OC)c4)[C@H]12)OC3=O (stereo partly drawn) [DETD-7]	> 10
C=C1C(=O)OC2CC3=C[C@@H](C/C(C)=C/C(OC(C)=O)[C@H]12)OC3=O (stereo partly drawn) [DETD-17]	> 10
C=C1C(=O)OC2CC3=C[C@@H](C/C(C)=C/C(OC(=O)C4CCCC4)[C@H]12)OC3=O (stereo partly drawn) [DETD-37]	> 10

system: TS/A (ER+, Her2−) murine mammary cancer cells; experiment: MTT cell viability assay, TS/A cells; format: cell-based; details: Mus musculus, 24 h, read-out: IC50 on cell viability, TS/A (ER+, Her2−)
Method: as §1, §2

SMILES	IC50 [µM]
C=C1C(=O)OC2CC3=C[C@@H](C/C(C)=C/C(OC(=O)Cc4ccc(OC)cc4)[C@H]12)OC3=O (stereo partly drawn) [DETD-44]	2.2
C=C1C(=O)OC2CC3=C[C@@H](C/C(C)=C/C(OC(=O)/C=C/c4cc(OC)c(OC)c(OC)c4)[C@H]12)OC3=O (stereo partly drawn) [DETD-7]	1.8
C=C1C(=O)OC2CC3=C[C@@H](C/C(C)=C/C(OC(C)=O)[C@H]12)OC3=O (stereo partly drawn) [DETD-17]	3.5
C=C1C(=O)OC2CC3=C[C@@H](C/C(C)=C/C(OC(=O)C4CCCC4)[C@H]12)OC3=O (stereo partly drawn) [DETD-37]	3
